This note sets out measurements from the NIST ThermoML archive (doi:10.1016/j.fluid.2013.12.020).

The conditions of this data set: 101.33 kPa, Liquid; for viscosity: Falling or rolling sphere viscometry; for mass density: Vibrating tube method.

Numbers after ± are expanded uncertainties.

Consider `Cn1cc[n+](CCO)c1.N#C[N-]C#N` [3-(2-hydroxyethyl)-1-methyl-1H-imidazol-3-ium dicyanoazanide], for which the viscosity (in general, the internal friction of a fluid under shear) by setting is: (293.15 K) 121.5 ± 6.2 mPa·s; (303.15 K) 68.67 ± 3 mPa·s; (313.15 K) 42.93 ± 1.9 mPa·s; (323.15 K) 28.96 ± 1.3 mPa·s; (333.15 K) 20.67 ± 0.9 mPa·s. Besides, the mass density (in general, the mass of a sample divided by its volume) (293.15 K) is 1192.85 ± 2.7 kg/m3; the mass density (303.15 K) was 1186.37 ± 2.7 kg/m3; the mass density (313.15 K) is 1179.92 ± 2.7 kg/m3; the mass density (323.15 K) is listed as 1173.52 ± 2.6 kg/m3; the mass density (333.15 K) is reported as 1167.18 ± 2.6 kg/m3.

Regarding `CCCCn1cc[n+](C)c1.N#CN=C=[N-]` [1-butyl-3-methylimidazolium dicyanamide], the viscosity worked out at 48.53 ± 2.1 mPa·s (293.15 K); 31.73 ± 1.4 mPa·s (303.15 K); 22.09 ± 0.96 mPa·s (313.15 K); 16.17 ± 0.7 mPa·s (323.15 K); 12.35 ± 0.54 mPa·s (333.15 K). Also, the mass density is, setting by setting: (293.15 K) 1065.4 ± 2.2 kg/m3; (303.15 K) 1059.09 ± 2.1 kg/m3; (313.15 K) 1052.83 ± 2.1 kg/m3; (323.15 K) 1046.62 ± 2.1 kg/m3; (333.15 K) 1040.48 ± 2 kg/m3.

Regarding `NCCO` [2-aminoethan-1-ol], the viscosity runs as follows: (293.15 K) 23.76 ± 0.98 mPa·s; (303.15 K) 14.85 ± 0.61 mPa·s; (313.15 K) 9.943 ± 0.41 mPa·s; (323.15 K) 6.984 ± 0.29 mPa·s; (333.15 K) 5.108 ± 0.21 mPa·s. For the same compound, the mass density came out at 1015.96 ± 0.3 kg/m3 (293.15 K); 1008.05 ± 0.29 kg/m3 (303.15 K); 1000.09 ± 0.29 kg/m3 (313.15 K); 992.07 ± 0.29 kg/m3 (323.15 K); 983.98 ± 0.29 kg/m3 (333.15 K).
